# ChEMBL document CHEMBL1201862, “PubChem BioAssay data set” (2004)
# Activity calls are given as the source filed them.
# Tests used:
# [1] = molecular target: FAD-linked sulfhydryl oxidase ALR (Homo sapiens, UniProt P55789); test: inhibitors of human ALR sulfhydryl oxidase, dose response, biochemical, H2O2 detection, luminescence, cherry-pick (AID 493248)
# Vero = test: cells; type: functional; details: Chlorocebus sabaeus
# [2] = molecular target: T1, Ubiquitin-conjugating enzyme E2 N (Homo sapiens, UniProt P61088); type: functional;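 note: Dose-response confirmation in a TR-FRET assay detecting UBC13-driven polyubiquitin chain formation, inhibition measured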
# T1 sequence (P61088 whole entry): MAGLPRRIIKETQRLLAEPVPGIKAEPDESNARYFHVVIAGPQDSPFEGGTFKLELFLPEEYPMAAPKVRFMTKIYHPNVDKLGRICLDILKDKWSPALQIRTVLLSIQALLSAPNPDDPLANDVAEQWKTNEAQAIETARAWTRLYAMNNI
# [3] = growth suppression of PTEN-null colon cells, dose response, cell-based, HCT116 PTEN knockout (AID 1047); type: functional;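 note: HCT116 colon tumor cells with PTEN knocked out; cells exposed to compound for 60 hours before readout; potency for loss of cell viability measured by luminescence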
# [4] = system: Streptococcus sp. 'group A'; test: growth inhibition of control SK(-) GAS strain, dose response, counter-screen for streptokinase expression inhibitor project, luminescence, kanamycin, BacTiterGlo, confirmation (AID 1900); type: functional, organism-based
# [5] = Luminescence Cell-Based Dose Retest to Confirm Inhibitors of Cancer Stem Cells. [Related pubchem assays (depositor defined):AID2717, AID2721]; type: functional; details: Homo sapiens
# [6] = growth suppression of beta-catenin-knockout colon cells, dose response, cell-based, HCT116, human colon tumor (AID 1045); type: functional;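 note: HCT116 colon tumor cells with beta catenin knocked out; cells exposed to compound for 60 hours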
# Streptokinase A = molecular target: T2, Streptokinase A (Streptococcus pyogenes serotype M1, UniProt P10520); test: S. pyogenes streptokinase expression inhibitors, potency, dose response, plasminogen activation absorbance, OD405 (AID 1914); type: functional, Streptococcus pyogenes M1 GAS;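 note: secreted streptokinase activity via plasminogen activation per viability signal from cell pellet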
# T2 sequence (P10520 whole entry): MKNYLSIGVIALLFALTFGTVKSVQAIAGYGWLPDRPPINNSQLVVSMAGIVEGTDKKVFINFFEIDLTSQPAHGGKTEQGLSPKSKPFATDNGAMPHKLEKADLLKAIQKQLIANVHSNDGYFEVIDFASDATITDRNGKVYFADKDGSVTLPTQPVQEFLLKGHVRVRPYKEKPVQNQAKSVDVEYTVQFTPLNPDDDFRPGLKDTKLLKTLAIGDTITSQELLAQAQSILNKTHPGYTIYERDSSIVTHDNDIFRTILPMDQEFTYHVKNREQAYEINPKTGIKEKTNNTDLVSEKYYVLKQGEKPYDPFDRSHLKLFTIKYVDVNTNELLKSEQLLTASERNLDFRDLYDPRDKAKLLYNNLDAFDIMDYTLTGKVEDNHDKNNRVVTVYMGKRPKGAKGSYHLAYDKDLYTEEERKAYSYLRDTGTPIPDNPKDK
# Streptococcus = test: Group A Streptococcus viability loss, dose response, counter-screen for streptokinase expression inhibitor project, luminescence, BacTiterGlo (AID 1915); type: functional, organism-based;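 note: potency for reduction of bacterial viability or growth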
# [7] = NIH-3T3 fibroblast cytotoxicity, dose response, cytotoxicity control, cell-based, fluorescence, Alamar Blue, secondary assay (AID 2327); type: functional;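 note: NIH-3T3 mouse fibroblasts cultured with fluconazole at 8 µg/mL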
# [8] = C. albicans growth with fluconazole, confirmation, fluorescence, retest (AID 2467); type: functional, cell-based
# [9] = molecular target: Luciferin 4-monooxygenase (Photinus pyralis, UniProt P08659); test: firefly luciferase enzyme inhibitors, dose response, biochemical, luminescence (AID 1891)
# Chain of Luciferin 4-monooxygenase (P08659 whole entry): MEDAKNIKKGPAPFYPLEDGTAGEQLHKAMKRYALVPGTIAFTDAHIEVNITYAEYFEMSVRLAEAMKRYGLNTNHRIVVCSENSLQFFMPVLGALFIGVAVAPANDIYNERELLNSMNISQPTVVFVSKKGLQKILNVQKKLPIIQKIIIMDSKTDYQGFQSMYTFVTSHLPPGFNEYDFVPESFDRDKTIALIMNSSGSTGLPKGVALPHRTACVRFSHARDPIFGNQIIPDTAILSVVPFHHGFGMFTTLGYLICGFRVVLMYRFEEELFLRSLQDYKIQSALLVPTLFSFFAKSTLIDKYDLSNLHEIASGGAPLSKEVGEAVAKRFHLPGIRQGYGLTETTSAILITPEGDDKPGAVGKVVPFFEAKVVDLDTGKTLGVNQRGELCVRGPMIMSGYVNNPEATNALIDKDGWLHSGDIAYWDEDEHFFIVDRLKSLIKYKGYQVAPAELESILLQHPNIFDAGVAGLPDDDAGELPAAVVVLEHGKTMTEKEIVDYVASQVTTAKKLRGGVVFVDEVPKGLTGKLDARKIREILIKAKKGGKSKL
# [10] = Luminescence Cell-Based Dose Confirmation HTS to Identify Inhibitors of Platelet Dense Granule Release. [Related pubchem assays: 1663 (Primary HTS), 1678 (Summary of Project)]; type: functional
# [11] = molecular target: T3, Rac GTPase-activating protein 1 (Homo sapiens, UniProt Q9H0H5); test: MgcRacGAP GTPase-activating activity inhibitors, confirmation, biochemical, ADP Hunter fluorescence, primary and confirmatory (AID 624330); type: functional
# T3 sequence (Q9H0H5 whole entry): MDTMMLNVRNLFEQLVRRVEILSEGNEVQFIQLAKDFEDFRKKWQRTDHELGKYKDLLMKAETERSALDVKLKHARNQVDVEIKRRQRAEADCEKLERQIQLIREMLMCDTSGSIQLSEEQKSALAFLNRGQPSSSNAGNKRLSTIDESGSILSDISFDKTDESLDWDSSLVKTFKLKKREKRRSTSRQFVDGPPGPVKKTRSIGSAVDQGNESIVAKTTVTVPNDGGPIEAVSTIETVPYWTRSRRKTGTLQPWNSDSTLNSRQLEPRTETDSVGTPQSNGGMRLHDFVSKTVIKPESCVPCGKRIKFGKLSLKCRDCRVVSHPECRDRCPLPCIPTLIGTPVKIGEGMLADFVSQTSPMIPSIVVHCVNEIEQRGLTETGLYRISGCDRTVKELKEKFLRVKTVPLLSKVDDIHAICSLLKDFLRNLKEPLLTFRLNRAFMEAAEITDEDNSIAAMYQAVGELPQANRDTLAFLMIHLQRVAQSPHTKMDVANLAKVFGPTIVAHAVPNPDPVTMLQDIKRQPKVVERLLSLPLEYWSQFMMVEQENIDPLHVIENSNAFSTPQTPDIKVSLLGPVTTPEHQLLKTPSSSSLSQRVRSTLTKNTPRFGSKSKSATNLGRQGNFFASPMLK
# [12] = molecular target: T4, Heat shock factor protein 1 (Mus musculus, UniProt P38532); test: HSF1 potentiators in luciferase reporter cells, confirmation, cell-based, NIH3T3, luminescence, dose retest (AID 435004); type: functional;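 note: stress induced by proteasome inhibitor MG132 added 30 min after compound; luciferase reporter driven by HSF1 response element in NIH3T3 cells; actives raise luminescence as potentiators of the MG132 stress response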
# T4 sequence (P38532 whole entry): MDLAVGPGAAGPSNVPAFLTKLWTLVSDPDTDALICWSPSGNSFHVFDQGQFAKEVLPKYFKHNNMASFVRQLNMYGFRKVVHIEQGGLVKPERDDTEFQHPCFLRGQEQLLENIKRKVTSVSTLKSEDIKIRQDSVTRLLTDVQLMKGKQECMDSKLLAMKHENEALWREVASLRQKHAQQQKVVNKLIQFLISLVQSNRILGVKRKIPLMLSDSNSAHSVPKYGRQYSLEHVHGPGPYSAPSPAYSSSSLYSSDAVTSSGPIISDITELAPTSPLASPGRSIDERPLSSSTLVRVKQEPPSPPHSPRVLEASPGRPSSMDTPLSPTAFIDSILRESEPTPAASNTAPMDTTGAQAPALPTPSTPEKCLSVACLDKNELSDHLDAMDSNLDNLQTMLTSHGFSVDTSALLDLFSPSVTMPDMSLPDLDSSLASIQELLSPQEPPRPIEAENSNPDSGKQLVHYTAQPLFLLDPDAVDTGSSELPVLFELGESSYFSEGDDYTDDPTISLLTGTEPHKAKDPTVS
# Cytochrome P450 2C19 = Cytochrome P450 2C19 (Homo sapiens, UniProt P33261); test: Cytochrome panel assay with activity outcomes. Panel member name: p450-cyp2c19 Compounds with AC50 equal or less than 10 uM are considered active; type: functional; details: read-out: AC50
# Chain of Cytochrome P450 2C19 (P33261 whole entry): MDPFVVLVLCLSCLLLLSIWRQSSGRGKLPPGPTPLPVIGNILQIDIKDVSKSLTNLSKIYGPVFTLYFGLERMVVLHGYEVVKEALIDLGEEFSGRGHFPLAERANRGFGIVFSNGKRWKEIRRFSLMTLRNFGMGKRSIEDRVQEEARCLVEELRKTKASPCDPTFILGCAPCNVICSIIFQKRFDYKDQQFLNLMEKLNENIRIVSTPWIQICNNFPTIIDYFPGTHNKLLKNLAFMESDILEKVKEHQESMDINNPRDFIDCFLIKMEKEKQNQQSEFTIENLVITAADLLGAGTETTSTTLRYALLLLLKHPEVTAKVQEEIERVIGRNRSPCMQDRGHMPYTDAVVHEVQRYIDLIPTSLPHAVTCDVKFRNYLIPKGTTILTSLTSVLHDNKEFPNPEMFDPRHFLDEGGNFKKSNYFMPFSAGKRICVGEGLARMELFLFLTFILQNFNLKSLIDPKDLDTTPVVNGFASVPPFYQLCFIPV
# [13] = molecular target: T5, High affinity choline transporter 1 (Homo sapiens, UniProt Q9GZV3); test: CHT inhibitors, dose response, cell-based, 5-point CRC, membrane potential dye (AID 504840); type: functional
# T5 sequence (Q9GZV3 whole entry): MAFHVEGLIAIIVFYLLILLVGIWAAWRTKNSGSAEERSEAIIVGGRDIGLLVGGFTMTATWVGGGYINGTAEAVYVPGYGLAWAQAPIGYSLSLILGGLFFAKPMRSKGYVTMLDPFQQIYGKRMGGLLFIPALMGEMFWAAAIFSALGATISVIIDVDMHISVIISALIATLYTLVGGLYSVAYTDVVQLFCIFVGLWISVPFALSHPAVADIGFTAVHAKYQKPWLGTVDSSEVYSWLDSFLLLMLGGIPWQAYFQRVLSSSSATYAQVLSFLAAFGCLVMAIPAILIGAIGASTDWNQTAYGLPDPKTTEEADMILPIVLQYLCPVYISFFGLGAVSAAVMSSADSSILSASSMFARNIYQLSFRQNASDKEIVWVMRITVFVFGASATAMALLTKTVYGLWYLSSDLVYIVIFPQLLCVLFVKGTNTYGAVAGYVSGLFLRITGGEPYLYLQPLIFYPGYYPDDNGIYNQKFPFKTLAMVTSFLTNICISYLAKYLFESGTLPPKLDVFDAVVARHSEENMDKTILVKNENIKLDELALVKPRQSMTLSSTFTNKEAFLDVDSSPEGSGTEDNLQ
# [14] = inhibitors of intracellular T. cruzi replication, confirmation, NIH3T3 host cells, beta-gal luminescence (AID 2044); type: functional, cell-based;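 note: intracellular parasites grown in NIH/3T3 mouse fibroblasts as host cells; luminescent beta-galactosidase reporter signal from transgenic T. cruzi replicating inside host cells; inhibitors lower the luminescence signal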
# [15] = cytotoxicity toward NIH3T3 fibroblasts, dose response, counter-screen, cell-based, ATP luminescence, mouse fibroblasts (AID 2010); type: functional;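 note: cells exposed to compound for about 90 hours before reading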
# [16] = inhibitors of firefly luciferase expression or activity, dose response, H4 neuroglioma cells, luminescence (AID 1990); type: functional, cell-based
# [17] = Luminescence Cell-Based Dose Response HTS to Identify Inhibitors of 5'UTR Stem-Loop Driven Prion Protein mRNA Translation in H4 Neuroglioblastoma Cells. [Related pubchem assays: 1827 (Project Summary), 1813 (Primary HTS)]; type: functional
# [18] = inhibitors of SNCA 5'UTR-driven reporter translation, confirmation, H4 neuroglioma cells, luminescence (AID 1988); type: functional, cell-based
# Chain of FAD-linked sulfhydryl oxidase ALR (P55789 whole entry): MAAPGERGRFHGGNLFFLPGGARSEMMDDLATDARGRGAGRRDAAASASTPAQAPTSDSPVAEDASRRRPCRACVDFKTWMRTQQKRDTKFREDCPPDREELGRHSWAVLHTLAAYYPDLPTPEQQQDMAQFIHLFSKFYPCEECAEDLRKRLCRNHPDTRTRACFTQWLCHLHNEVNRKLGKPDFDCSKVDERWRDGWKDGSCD
compound,measurement,setting,value
Nc1ccc(-c2nc3ccccc3[nH]2)cc1,AC50,[1],1.3 µM (active)
CC1CCN(c2nc3ccc(C(=O)NCCCN4CCCCC4C)cc3s2)CC1 (stereo not drawn),CC50,Vero,> 25 µM (active)
c1ccc2c(C[C@@H]3CNCCN3CC3CCCCC3)cccc2c1,IC50,[2],> 20 µM (inactive)
CN(C)CCNC=C(C(=O)Nc1ccc(Cl)cc1Cl)C(=O)Nc1ccc(Cl)cc1Cl,CC50,Vero,> 25 µM (active)
same,EC50,[3],17.2 µM (active)
same,EC50,[4],2.71 µM (active)
same,IC50,[2],> 20 µM (inactive)
same,AC50,[5],6.84 µM (active)
same,EC50,[6],26.4 µM (active)
same,EC50,Streptokinase A,> 150 µM (not active)
same,EC50,Streptococcus,6.32 µM (active)
O=C(NCC1CCCO1)c1cc2n(n1)C(C(F)(F)F)CC(c1ccc(Br)cc1)N2 (stereo not drawn),EC50,[7],> 160 µM (inactive)
same,EC50,[8],> 38 µM (not active)
Cc1cccc(N2CCN(C(=O)C3CCN(S(=O)(=O)c4c(C)noc4C)CC3)CC2C)c1 (stereo not drawn),AC50,[1],10.6 µM (active)
CN(C)C=O.CNC(=O)CSc1nc2nc(C)cc(C)n2n1,EC50,[9],> 112 µM (not active)
same,EC50,[10],> 112 µM (not active)
COc1ccc(CSc2[nH]c(C)nc2[N+](=O)[O-])cc1[N+](=O)[O-],AC50,[1],0.02 µM (active)
Nc1ccc(N2CCN(c3ccc(F)cc3)CC2)cc1,IC50,[11],18.2 µM (active)
same,AC50,[1],0.821 µM (active)
same,EC50,[7],40.1 µM (active)
CCOC(=O)c1sc(NC(=O)CCN2CCC(C)CC2)c(C(=O)OCC)c1C,EC50,[12],> 260 µM (inactive)
CCCc1cc(=O)oc2cc(OCC(=O)N3CCc4ccccc43)ccc12,AC50,Cytochrome P450 2C19,1 µM (inconclusive)
same,EC50,[9],> 112 µM (not active)
same,EC50,[10],> 112 µM (not active)
CC(C)CCNCC(=O)NC(c1ccccc1)c1ccccc1,EC50,[7],> 160 µM (inactive)
same,EC50,[8],> 38 µM (not active)
CCOc1cc(N2CCOCC2)c(OCC)cc1NC(=O)c1nc2nc(C)cc(C)n2n1,EC50,[7],> 160 µM (inactive)
same,EC50,[8],> 38 µM (not active)
C=C(C)COc1ccc(-c2[nH]nc(C)c2-c2ccccc2)c(O)c1,EC50,[4],9.45 µM (active)
same,EC50,Streptococcus,16.4 µM (active)
same,EC50,[7],93.6 µM (active)
same,EC50,[8],2.67 µM (active)
C#CCOCCOCCOCCNc1nc(N2CCOCC2)nc(N2CCN(C(=O)CCCCCCCCCCNC(=O)[C@H]([C@@H](C)CC)n3cc(CCCCN=C(N)N)nn3)CC2)n1,IC50,[2],> 20 µM (inactive)
Cc1cccc(N2CCN(C(=O)C3CCCN(S(=O)(=O)c4c[nH]cn4)C3)CC2C)c1 (stereo not drawn),AC50,[1],3.55 µM (active)
O=C(Nc1nc2ccc(S(=O)(=O)N3CCCCC3)cc2s1)c1ccncc1,EC50,[7],130 µM (active)
same,EC50,[8],1.95 µM (active)
O=C(NC1CCCCCCC1)c1ccc(S(=O)(=O)N2CCCC2)cc1,IC50,[13],14.5 µM (active)
O=C(NCc1ccccc1)C(c1cccnc1)N(C(=O)c1ccccn1)c1ccccc1F (stereo not drawn),EC50,[9],> 112 µM (not active)
same,EC50,[10],> 112 µM (not active)
OCc1ccccc1OCCOc1ccc(Cl)c2cccnc12,IC50,[13],11.5 µM (active)
CCn1c(=O)c(=O)[nH]c2cc(C(=O)NC(C)c3ccc(S(N)(=O)=O)cc3)ccc21 (stereo not drawn),AC50,[1],0.407 µM (active)
Cc1ccc(C(=O)C[n+]2cccc3ccccc32)cc1,EC50,[14],32.4 µM (active)
same,IC50,[13],13.8 µM (active)
same,EC50,[15],> 60 µM (not active)
COc1ccc(Nc2cc3n(c(=O)n2)CCc2cc(OC)c(OC)cc2-3)cc1,EC50,[9],> 112 µM (not active)
same,EC50,[10],4.68 µM (active)
CC(C)c1ccc(NC2CCCN(C(=O)c3cnsn3)C2)cc1 (stereo not drawn),AC50,[1],4.8 µM (active)
COc1ccc(Nc2cc3n(c(=O)n2)CCc2cc(OC)c(OC)cc2-3)c(C)c1,EC50,[9],> 112 µM (not active)
same,EC50,[16],17.3 µM (active)
same,EC50,[17],41.3 µM (active)
same,EC50,[10],0.987 µM (active)
same,EC50,[18],35.6 µM (active)
COc1cc2sc(-c3ccc(S(C)(=O)=O)cc3)c(C(=O)NCCCCO)c2cc1OC,IC50,[2],> 20 µM (inactive)
O=C(CC(CC(=O)c1ccc(Cl)cc1)c1ccccc1C(=O)O)c1ccc(Cl)cc1,IC50,[13],13.8 µM (active)
CCn1cc(C(=O)N2CCCCC2)c(=O)c2cc(S(=O)(=O)N3CCC(C)CC3)ccc21,IC50,[13],16.2 µM (active)
CCOC(=O)c1ccccc1N/C=C/C(=O)c1cccs1,IC50,[13],13.2 µM (active)
CCOc1cc(/C=N/NC(=O)CN2CCCCC2)ccc1OCc1cccc(Cl)c1,IC50,[13],14.5 µM (active)
O=C(N/N=C/c1ccncc1)c1cccc(N/N=C/c2ccncc2)c1,AC50,[1],6.02 µM (active)
CCOc1ccccc1Nc1cc2n(c(=O)n1)CCc1cc(OC)c(OC)cc1-2,EC50,[9],> 112 µM (not active)
same,EC50,[16],47.8 µM (active)
same,EC50,[17],30.7 µM (active)
same,EC50,[10],1.23 µM (active)
same,EC50,[18],9.81 µM (active)
